Where two headings read alike, the source gives them in different places.
Columns and labels:
[1] = biological target: IGF1R (Homo sapiens, UniProt P08069); experiment: In vitro IGF-1R enzymatic assay (ADP-Glo kinase assay); type: biochemical; parameters: purchased Millipore 14-802; details: activated IGF-1R; for inhibition at 0.03 µM: 30 nM; for IC50: read-out: IC50
Procedure: (§1) IC50 values of the compounds of the invention against IGF-1R and IR were measured in vitro using an ADP-Glo kinase assay Kit (Promega). […] Kinase reactions in both assays were conducted at 30° C. for 20 min with increasing concentrations of compounds of the invention.

[2] = biological target: T1, IR (Homo sapiens, UniProt P06213); experiment: In vitro IR enzymatic assay (ADP-Glo kinase assay); type: biochemical; details: activated IR; for inhibition at 0.03 µM: 30 nM; for IC50: read-out: IC50
T1 construct: purchased Millipore 14-803
Procedure: as §1

[3] = test system: Akt phosphorylation induced by IGF-1R in HT-29 cells; experiment: Western blot analysis of Akt phosphorylation induced by IGF-1R; type: cell-based, Human; details: then IGF-1 10 ng/mL 10 min, HT-29
Procedure: Inhibition of Akt phosphorylation induced by IGF-1R was studied by western blot analysis. Human colon carcinoma HT-29 cells were seeded at a density of 8×10^4 cells/well in a 24-well plate and grown in DME/F12 media containing 10% FBS for 24 h. The cells were then depleted of serum by incubation in DME/F12 media lacking FBS for 24 h. […] […] Lysed cells were centrifuged at 13,000 rpm for 15 min and the protein concentration soluble fraction (supernatant) of each sample was determined using a BCA protein assay (Pierce).

[4] = biological target: FAK2(PTK2b) (Homo sapiens, UniProt Q14289); experiment: Caliper kinase assay: FAK2(PTK2b); details: 0.01 μM
Procedure: (§2) The compound was tested at concentrations of 1.0×10^−8 and 1.0×10^−9 M in the RapidKinase192™ panel in duplicate. […] The screening was performed using the Caliper EZReader2, a 4-sipper LabChip, and ProfilerPro Kinase Selectivity Assay Kits 1 and 2. The assay measures the conversion of a fluorescent peptide substrate to a phosphorylated product. Briefly, the reaction mixture was introduced through a capillary sipper onto the microfluidic chip, where the substrate and product were electrophoretically separated and detected by laser-induced fluorescence. The time-dependent fluorescence signal indicates the extent of the reaction.
(§3) The kinases tested were AurA, AurB, AurC, AXL, FAK2, IGF1R, InsR, Mer, MET, TrkB and TrkC.
(§4) The assays were conducted using the Caliper LabChip 3000 and a 12-sipper LabChip as described above.

[5] = biological target: T2, AXL (Homo sapiens, UniProt P30530); experiment: Caliper kinase profiling: AXL; details: 0.01 μM
T2 sequence (P30530 26-894): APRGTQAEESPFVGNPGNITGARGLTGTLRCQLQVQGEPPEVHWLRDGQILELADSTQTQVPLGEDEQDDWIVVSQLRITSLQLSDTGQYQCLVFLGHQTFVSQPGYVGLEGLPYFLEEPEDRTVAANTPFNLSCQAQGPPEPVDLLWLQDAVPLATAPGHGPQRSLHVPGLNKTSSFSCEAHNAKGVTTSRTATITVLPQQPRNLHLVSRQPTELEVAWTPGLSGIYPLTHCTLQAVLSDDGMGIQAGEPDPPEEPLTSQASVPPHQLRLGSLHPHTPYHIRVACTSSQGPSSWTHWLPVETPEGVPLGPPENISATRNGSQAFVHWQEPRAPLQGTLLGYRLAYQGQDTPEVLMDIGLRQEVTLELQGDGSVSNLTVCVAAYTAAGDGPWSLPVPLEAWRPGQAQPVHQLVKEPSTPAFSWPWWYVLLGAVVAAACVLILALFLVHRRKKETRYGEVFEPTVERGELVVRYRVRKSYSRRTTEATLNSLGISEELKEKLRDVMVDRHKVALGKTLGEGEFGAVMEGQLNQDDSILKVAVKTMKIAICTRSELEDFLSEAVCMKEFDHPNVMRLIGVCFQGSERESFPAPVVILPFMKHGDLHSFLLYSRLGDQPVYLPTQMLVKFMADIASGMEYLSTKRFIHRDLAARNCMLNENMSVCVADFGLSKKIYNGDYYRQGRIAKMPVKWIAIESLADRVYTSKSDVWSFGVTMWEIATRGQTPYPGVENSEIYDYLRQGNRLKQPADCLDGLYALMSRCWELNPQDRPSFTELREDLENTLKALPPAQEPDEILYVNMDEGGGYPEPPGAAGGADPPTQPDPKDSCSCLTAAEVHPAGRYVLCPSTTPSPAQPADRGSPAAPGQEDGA
Procedure: as §2, §3, §4

[6] = biological target: TRKC (NTRK3) (Homo sapiens, UniProt Q16288); experiment: Caliper kinase profiling: TRKC (NTRK3); details: 0.01 μM
Procedure: as §2, §3, §4

[7] = biological target: NTRK2 (TRKB) (Homo sapiens, UniProt Q16620); experiment: Caliper kinase profiling: NTRK2 (TRKB); details: 0.01 μM
Procedure: as §2, §3, §4

[8] = average, read-out: % Inh @ 30 nM Avg
[9] = replicate N1, read-out: % Inh @ 30 nM (N1)
[10] = replicate N2, read-out: % Inh @ 30 nM (N2)

T1 sequence (P06213 28-1382): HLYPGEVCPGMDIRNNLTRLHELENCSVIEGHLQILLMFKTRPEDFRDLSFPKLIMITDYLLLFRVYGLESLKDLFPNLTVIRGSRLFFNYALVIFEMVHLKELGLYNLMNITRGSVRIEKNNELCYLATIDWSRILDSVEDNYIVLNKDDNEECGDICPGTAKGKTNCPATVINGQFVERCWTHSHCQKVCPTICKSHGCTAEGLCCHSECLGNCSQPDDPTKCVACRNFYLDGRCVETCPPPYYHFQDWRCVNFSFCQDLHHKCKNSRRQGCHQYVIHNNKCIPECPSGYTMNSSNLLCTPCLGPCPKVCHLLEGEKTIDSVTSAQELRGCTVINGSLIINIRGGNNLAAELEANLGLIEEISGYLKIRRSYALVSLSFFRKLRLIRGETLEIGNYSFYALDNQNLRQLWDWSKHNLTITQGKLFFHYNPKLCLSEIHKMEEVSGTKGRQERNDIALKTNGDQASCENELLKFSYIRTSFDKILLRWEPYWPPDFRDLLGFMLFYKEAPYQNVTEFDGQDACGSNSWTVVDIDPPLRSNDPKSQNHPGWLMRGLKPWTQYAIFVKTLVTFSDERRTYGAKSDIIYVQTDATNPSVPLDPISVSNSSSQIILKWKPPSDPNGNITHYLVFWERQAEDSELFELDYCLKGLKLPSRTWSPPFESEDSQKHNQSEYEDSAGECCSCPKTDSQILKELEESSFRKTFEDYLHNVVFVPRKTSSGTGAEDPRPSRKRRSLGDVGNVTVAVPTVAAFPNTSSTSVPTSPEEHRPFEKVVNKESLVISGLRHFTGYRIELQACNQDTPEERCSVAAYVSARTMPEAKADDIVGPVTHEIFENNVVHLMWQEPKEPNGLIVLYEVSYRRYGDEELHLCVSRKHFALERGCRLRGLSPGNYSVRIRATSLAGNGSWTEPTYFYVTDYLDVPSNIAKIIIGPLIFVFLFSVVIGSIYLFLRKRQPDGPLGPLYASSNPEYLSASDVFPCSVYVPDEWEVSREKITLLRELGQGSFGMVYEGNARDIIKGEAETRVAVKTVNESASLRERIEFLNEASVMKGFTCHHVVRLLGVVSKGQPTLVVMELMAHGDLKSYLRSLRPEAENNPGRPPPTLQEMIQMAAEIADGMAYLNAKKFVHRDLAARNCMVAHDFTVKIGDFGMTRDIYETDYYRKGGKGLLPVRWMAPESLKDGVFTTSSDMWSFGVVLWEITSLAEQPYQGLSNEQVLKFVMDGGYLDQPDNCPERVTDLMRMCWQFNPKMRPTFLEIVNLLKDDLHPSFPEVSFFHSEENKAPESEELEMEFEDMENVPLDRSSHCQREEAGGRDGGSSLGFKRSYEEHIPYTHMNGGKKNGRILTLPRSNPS
Chain of IGF1R (P08069 31-1367): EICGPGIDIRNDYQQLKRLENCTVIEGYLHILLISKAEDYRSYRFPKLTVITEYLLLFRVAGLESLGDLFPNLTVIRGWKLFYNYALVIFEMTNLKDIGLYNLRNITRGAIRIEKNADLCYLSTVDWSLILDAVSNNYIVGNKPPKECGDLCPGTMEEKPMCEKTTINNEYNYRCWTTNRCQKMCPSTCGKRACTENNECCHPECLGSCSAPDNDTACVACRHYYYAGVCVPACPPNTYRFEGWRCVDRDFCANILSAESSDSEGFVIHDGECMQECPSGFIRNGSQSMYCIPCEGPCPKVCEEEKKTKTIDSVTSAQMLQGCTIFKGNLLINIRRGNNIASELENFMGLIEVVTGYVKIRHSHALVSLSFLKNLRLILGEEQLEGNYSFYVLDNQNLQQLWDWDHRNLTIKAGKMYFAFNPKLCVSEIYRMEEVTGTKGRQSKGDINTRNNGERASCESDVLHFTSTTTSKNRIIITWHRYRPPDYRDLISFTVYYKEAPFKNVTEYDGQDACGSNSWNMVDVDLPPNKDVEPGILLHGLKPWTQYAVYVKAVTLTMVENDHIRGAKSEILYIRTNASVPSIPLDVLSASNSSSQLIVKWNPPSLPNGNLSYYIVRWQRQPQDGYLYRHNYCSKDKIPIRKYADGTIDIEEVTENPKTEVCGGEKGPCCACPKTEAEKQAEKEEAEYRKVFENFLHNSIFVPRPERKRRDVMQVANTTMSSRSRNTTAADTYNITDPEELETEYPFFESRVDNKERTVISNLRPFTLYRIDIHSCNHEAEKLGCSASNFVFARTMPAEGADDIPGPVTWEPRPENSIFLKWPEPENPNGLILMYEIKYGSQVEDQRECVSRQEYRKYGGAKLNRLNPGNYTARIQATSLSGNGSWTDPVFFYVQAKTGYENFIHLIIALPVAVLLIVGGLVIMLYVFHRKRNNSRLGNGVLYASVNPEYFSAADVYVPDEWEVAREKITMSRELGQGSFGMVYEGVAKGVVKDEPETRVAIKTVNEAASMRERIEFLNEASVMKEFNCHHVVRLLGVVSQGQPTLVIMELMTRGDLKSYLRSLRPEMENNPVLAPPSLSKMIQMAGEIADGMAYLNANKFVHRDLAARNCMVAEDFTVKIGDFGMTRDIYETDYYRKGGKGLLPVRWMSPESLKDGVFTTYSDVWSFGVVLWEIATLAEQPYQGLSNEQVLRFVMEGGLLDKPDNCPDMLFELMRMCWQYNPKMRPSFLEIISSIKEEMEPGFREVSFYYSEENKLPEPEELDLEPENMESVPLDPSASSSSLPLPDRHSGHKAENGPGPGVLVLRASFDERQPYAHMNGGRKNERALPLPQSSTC
Chain of FAK2(PTK2b) (Q14289 whole entry): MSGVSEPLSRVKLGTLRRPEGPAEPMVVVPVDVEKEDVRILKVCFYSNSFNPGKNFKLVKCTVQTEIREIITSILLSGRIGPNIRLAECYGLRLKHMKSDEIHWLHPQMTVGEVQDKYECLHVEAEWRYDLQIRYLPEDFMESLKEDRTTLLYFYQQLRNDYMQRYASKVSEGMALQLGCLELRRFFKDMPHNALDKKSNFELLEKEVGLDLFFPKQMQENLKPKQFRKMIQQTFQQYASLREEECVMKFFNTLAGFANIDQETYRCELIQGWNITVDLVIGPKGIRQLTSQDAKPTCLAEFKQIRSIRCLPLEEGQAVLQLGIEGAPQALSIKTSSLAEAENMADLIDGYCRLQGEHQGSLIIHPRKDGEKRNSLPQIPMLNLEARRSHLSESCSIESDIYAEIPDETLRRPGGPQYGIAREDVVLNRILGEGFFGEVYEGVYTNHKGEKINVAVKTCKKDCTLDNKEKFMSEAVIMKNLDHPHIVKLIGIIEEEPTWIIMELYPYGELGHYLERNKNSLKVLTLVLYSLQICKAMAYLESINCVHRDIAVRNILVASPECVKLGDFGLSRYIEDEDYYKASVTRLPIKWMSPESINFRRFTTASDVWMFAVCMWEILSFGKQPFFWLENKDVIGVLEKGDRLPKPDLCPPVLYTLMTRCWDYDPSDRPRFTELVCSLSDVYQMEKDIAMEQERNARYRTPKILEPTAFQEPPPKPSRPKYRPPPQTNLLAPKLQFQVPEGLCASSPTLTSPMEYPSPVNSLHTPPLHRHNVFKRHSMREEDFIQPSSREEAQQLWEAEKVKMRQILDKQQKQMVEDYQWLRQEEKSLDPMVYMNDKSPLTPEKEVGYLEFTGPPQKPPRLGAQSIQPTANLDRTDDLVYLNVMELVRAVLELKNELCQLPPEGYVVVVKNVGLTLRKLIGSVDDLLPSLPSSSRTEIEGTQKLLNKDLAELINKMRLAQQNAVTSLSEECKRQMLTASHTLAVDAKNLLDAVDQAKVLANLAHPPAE
Chain of NTRK2 (TRKB) (Q16620 32-822): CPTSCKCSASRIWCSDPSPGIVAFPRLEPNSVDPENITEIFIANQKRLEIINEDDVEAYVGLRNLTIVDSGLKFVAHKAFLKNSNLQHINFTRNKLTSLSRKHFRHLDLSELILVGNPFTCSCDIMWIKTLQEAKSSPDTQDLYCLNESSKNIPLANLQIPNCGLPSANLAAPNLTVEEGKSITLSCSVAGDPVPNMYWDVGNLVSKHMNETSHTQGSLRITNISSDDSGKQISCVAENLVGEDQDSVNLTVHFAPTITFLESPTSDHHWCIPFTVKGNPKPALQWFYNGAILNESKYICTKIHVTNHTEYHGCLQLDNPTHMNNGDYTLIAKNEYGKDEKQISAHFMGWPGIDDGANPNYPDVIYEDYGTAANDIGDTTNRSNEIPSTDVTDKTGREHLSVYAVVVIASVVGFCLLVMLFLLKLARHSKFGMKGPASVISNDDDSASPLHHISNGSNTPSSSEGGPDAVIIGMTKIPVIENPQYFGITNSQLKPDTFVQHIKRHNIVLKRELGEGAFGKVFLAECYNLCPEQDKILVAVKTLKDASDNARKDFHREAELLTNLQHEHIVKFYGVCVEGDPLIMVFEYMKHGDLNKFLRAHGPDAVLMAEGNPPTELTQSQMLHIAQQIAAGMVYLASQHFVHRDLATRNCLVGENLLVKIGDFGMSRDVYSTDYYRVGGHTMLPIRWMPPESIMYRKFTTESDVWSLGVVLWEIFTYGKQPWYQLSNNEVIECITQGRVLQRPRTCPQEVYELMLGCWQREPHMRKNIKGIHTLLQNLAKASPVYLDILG

| SMILES | inhibition at 0.03 µM [1, 8] | inhibition at 0.03 µM [2, 8] | IC50 [2] | inhibition at 0.03 µM [1, 9] | phosphorylated AKT levels normalized to actin levels (pAKT/actin) ([3]; 100 nM compound 2 h) | phosphorylated AKT levels normalized to actin levels (pAKT/actin) ([3]; 0.1 nM compound 2 h) | also measured |
| --- | --- | --- | --- | --- | --- | --- | --- |
| CC(C)c1cc(Nc2nc(N3CCCC3C(=O)Nc3ccc(F)nc3)nc3c2CC(C)(C)C3)n[nH]1 (racemic) [Compound 50, N-(6-fluoropyridin-3-yl)-1-(4-((5-isopropyl-1H-pyrazol-3-yl)amino)-6,6-dimethyl-6,7-dihydro-5H-cyclopenta[d]pyrimidin-2-yl)pyrrolidine-2-carboxamide] | 35% | 51% | 36 nM | – | – | – | – |
| CC(C)c1cc(Nc2nc(N3CCCC3C(=O)Nc3ccncn3)nc3c2CCC3)n[nH]1 (racemic) [Compound 69, 1-(4-(5-isopropyl-1H-pyrazol-3-ylamino)-6,7-dihydro-5H-cyclopenta[d]pyrimidin-2-yl)-N-(pyrimidin-4-yl)pyrrolidine-2-carboxamide] | – | – | 32 nM | – | – | – | – |
| CC(C)c1cc(Nc2nc(N3CC(O)CC3C(=O)Nc3nccs3)nc3c2CCC3)n[nH]1 (racemic) [Compound 71, 4-hydroxy-1-(4-(5-isopropyl-1H-pyrazol-3-ylamino)-6,7-dihydro-5H-cyclopenta[d]pyrimidin-2-yl)-N-(thiazol-2-yl)pyrrolidine-2-carboxamide] | – | – | 44 nM | – | – | – | – |
| O=C(Nc1ccc(F)nc1)C1CCCCN1c1nc2c(c(Nc3cc(C4CC4)[nH]n3)n1)CCC2 (single isomer, unassigned) [Compound 9b, 1-(4-(5-cyclopropyl-1H-pyrazol-3-ylamino)-6,7-dihydro-5H-cyclopenta[d]pyrimidin-2-yl)-N-(6-fluoropyridin-3-yl)piperidine-2-carboxamide] | 16% | 6% | – | 14% | 0.78 | – | inhibition at 0.03 µM [1, 10]: 17%; inhibition at 0.03 µM [2, 9]: 3%; inhibition at 0.03 µM [2, 10]: 9% |
| O=C(Nc1ccc(F)nc1)C1CCCN1c1nc2c(c(Nc3cc(C4CCCC4)[nH]n3)n1)CCCC2 (single isomer, unassigned) [Compound 15a, 1-(4-(5-cyclopentyl-1H-pyrazol-3-ylamino)-5,6,7,8-tetrahydroquinazolin-2-yl)-N-(6-fluoropyridin-3-yl)pyrrolidine-2-carboxamide] | 19% | – | – | 17% | 0.59 | 0.70 | phosphorylated AKT levels normalized to actin levels (pAKT/actin) ([3]; 1 nM compound 2 h): 0.89; phosphorylated AKT levels normalized to actin levels (pAKT/actin) ([3]; 10 nM compound 2 h): 0.92; inhibition at 0.03 µM [1, 10]: 20% |
| CC(C)c1cc(Nc2nc(N3CCCCC3C(=O)Nc3ccc(F)nc3)nc3c2CCC3)n[nH]1 (single isomer, unassigned) [Compound 16a, N-(6-fluoropyridin-3-yl)-1-(4-(5-isopropyl-1H-pyrazol-3-ylamino)-6,7-dihydro-5H-cyclopenta[d]pyrimidin-2-yl)piperidine-2-carboxamide] | 21% | – | – | 27% | 0.30 | 0.82 | phosphorylated AKT levels normalized to actin levels (pAKT/actin) ([3]; 1 nM compound 2 h): 0.62; phosphorylated AKT levels normalized to actin levels (pAKT/actin) ([3]; 10 nM compound 2 h): 0.61 |
| O=C(Nc1ccc(F)nc1)C1CCCCN1c1nc2c(c(Nc3cc(C4CCCC4)[nH]n3)n1)CCC2 (single isomer, unassigned) [Compound 17a, 1-(4-(5-cyclopentyl-1H-pyrazol-3-ylamino)-6,7-dihydro-5H-cyclopenta[d]pyrimidin-2-yl)-N-(6-fluoropyridin-3-yl)piperidine-2-carboxamide] | 18% | 3% | – | 12% | – | 0.89 | inhibition at 0.03 µM [1, 10]: 24%; inhibition at 0.03 µM [2, 9]: 2%; inhibition at 0.03 µM [2, 10]: 5% |
| COC1CC(C(=O)Nc2ccc(F)nc2)N(c2nc3c(c(Nc4cc(C5CC5)[nH]n4)n2)CCC3)C1 (single isomer, unassigned) [Compound 21b] | – | 30% | 120 nM | – | – | – | – |

The remaining molecules from weak to strong by IC50 [2], led by results:

| inhibition at 0.03 µM [1, 8] | inhibition at 0.03 µM [2, 8] | IC50 [2] | inhibition at 0.03 µM [1, 9] | SMILES | phosphorylated AKT levels normalized to actin levels (pAKT/actin) ([3]; 100 nM compound 2 h) | phosphorylated AKT levels normalized to actin levels (pAKT/actin) ([3]; 0.1 nM compound 2 h) | also measured |
| --- | --- | --- | --- | --- | --- | --- | --- |
| – | – | 22 nM | – | CC(C)c1cc(Nc2nc(N3CC(O)CC3C(=O)Nc3ccc(F)nc3)nc3c2CCC3)n[nH]1 (racemic) [Compound 70, N-(6-fluoropyridin-3-yl)-4-hydroxy-1-(4-(5-isopropyl-1H-pyrazol-3-ylamino)-6,7-dihydro-5H-cyclopenta[d]pyrimidin-2-yl)pyrrolidine-2-carboxamide] | – | – | – |
| – | – | 16 nM | – | CC(C)c1cc(Nc2nc(N3CCCC3C(=O)Nc3ccc(N)nc3)nc3c2CCC3)n[nH]1 (racemic) [Compound 72, N-(6-aminopyridin-3-yl)-1-(4-(5-isopropyl-1H-pyrazol-3-ylamino)-6,7-dihydro-5H-cyclopenta[d]pyrimidin-2-yl)pyrrolidine-2-carboxamide] | – | – | – |
| 77% | 81% | 16 nM | 77% | O=C(Nc1ccc(F)nc1)C1CCCN1c1nc2c(c(Nc3cc(C4CC4)[nH]n3)n1)CCCC2 (single isomer, unassigned) [Compound 14b, 1-(4-(5-cyclopropyl-1H-pyrazol-3-ylamino)-5,6,7,8-tetrahydroquinazolin-2-yl)-N-(6-fluoropyridin-3-yl)pyrrolidine-2-carboxamide] | 0.00 | 0.51 | phosphorylated AKT levels normalized to actin levels (pAKT/actin) ([3]; 1 nM compound 2 h): 0.49; phosphorylated AKT levels normalized to actin levels (pAKT/actin) ([3]; 10 nM compound 2 h): 0.02; inhibition at 0.03 µM [1, 10]: 76%; IC50 [1]: 22 nM; inhibition at 0.03 µM [2, 9]: 82%; inhibition at 0.03 µM [2, 10]: 81% |
| – | – | 13 nM | – | CC(C)c1cc(Nc2nc(N3CCCC3C(=O)Nc3ccc(F)nc3)nc3c2CCCC3)n[nH]1 (single isomer, unassigned) [Compound 13b, N-(6-fluoropyridin-3-yl)-1-(4-(5-isopropyl-1H-pyrazol-3-ylamino)-5,6,7,8-tetrahydroquinazolin-2-yl)pyrrolidine-2-carboxamide] | 0.00 | 0.22 | phosphorylated AKT levels normalized to actin levels (pAKT/actin) ([3]; 1 nM compound 2 h): 0.09; phosphorylated AKT levels normalized to actin levels (pAKT/actin) ([3]; 10 nM compound 2 h): 0.00; IC50 [1]: 17 nM |
| – | – | 11 nM | – | CC(C)c1cc(Nc2nc(N3CCCC3C(=O)Nc3nccs3)nc3c2CCC3)n[nH]1 (racemic) [Compound 68, 1-(4-(5-isopropyl-1H-pyrazol-3-ylamino)-6,7-dihydro-5H-cyclopenta[d]pyrimidin-2-yl)-N-(thiazol-2-yl)pyrrolidine-2-carboxamide] | – | – | – |
| – | – | 7.2 nM | – | O=C(Nc1ccc(F)nc1)C1CC(O)CN1c1nc2c(c(Nc3cc(C4CC4)[nH]n3)n1)CCC2 (single isomer, unassigned) [Compound 10d, 1-(4-(5-cyclopropyl-1H-pyrazol-3-ylamino)-6,7-dihydro-5H-cyclopenta[d]pyrimidin-2-yl)-N-(6-fluoropyridin-3-yl)-4-hydroxypyrrolidine-2-carboxamide] | – | – | inhibition of FAK2 in panel of 11 kinases [4]: strongly inhibited; inhibition of AXL in panel of 11 kinases [5]: strongly inhibited; inhibition of TrkC in panel of 11 kinases [6]: strongly inhibited; inhibition of TrkB in panel of 11 kinases [7]: strongly inhibited; IC50 [1]: 5.8 nM |

— patent US9422267B2, “Fused pyrimidine compounds and use thereof” (Medivation Technologies, Inc., priority 2012, dated 2016)
